Laboratory results from PMC10821019, “F16 Hybrids Derived from Steviol or Isosteviol Are Accumulated in the Mitochondria of Tumor Cells and Overcome Drug Resistance” (Molecules, 2024).

What was measured:
A549 (lung carcinoma) = assay: SRB cytotoxicity assay, A549; type: cell-based, human; conditions: for selectivity index 2 (SI 2): CCD18Co/A549; for IC50: SRB assay, 72 h treatment, mean n = 3, SD 5-10%
From the text: (§1) All compounds were screened for their cytotoxic activity and tumor cell selectivity using our standard model, previously described, comprising a selection of human tumor cell lines representing different solid tumor entities and non-malignant human fibroblasts (CCD18Co) including the cell line pair A2780/A2780cis, a well-known model of acquired drug resistance.
(§2) Reagents were bought from commercial suppliers and used without further purification. The solvents were dried according to the usual procedures. TLC was performed on silica gel (Macherey-Nagel, detection with UV absorption; Macherey-Nagel, Düren, Germany). […] Numbering in the NMR spectra: 1–20 (diterpene core), 21–24 for O-(CH2)n-N fragment followed by the pyridinium ring, the ethenyl moiety and the indole moiety. […] IR spectra were recorded on a Perkin-Elmer Spectrum Two (UATR Two Unit, Perkin-Elmer GmbH, Rodgau, Germany). […] Both media were supplemented with 10% fetal bovine serum (Biowest, Nuaillé, France) and 1% penicillin-streptomycin (Sigma-Aldrich).
(§3) Cytotoxic activities of compounds were analyzed using the SRB cytotoxicity assay. Cells were seeded in 96-well plates and after 24 h were treated with serial dilutions of compounds for 72 h. All subsequent steps were performed according to the previously described SRB assay protocol. Dose–response curves and calculation of IC50 values, including standard deviations, were carried out using GraphPad Prism8.

[1] = test system: HT29 (colorectal carcinoma); assay: SRB cytotoxicity assay, HT29; type: cell-based, human; conditions: 72 h treatment, mean n = 3, SD 5-10%
From the text: as §1, §2, §3

[2] = test system: A2780cis (resistant derivative of A2780); assay: SRB cytotoxicity assay, A2780cis; type: cell-based, human; conditions: for IC50: SRB assay, 72 h treatment, mean n = 3, SD 5-10%; for resistance index (RI): quotient IC50 values A2780cis/A2780
From the text: as §1, §2, §3

[3] = test system: A2780 (ovarian carcinoma); assay: SRB cytotoxicity assay, A2780; type: cell-based, human; conditions: for selectivity index 1 (SI 1): CCD18Co/A2780; for IC50: SRB assay, 72 h treatment, mean n = 3, SD 5-10%
From the text: as §1, §2, §3

[4] = test system: CCD18Co (non-malignant human fibroblasts); assay: SRB cytotoxicity assay, CCD18Co; type: cell-based; conditions: 72 h treatment, mean n = 3, SD 5-10%
From the text: as §1, §2, §3

MCF7 (breast carcinoma) = assay: SRB cytotoxicity assay, MCF7; type: cell-based, human; conditions: 72 h treatment, mean n = 3, SD 5-10%
From the text: as §1, §2, §3

| Compound | selectivity index 2 (SI 2) (A549 (lung carcinoma)) | IC50 (A549 (lung carcinoma)) [µM] | IC50 [1] [µM] | IC50 [2] [µM] | resistance index (RI) [2] | selectivity index 1 (SI 1) [3] | IC50 [3] [µM] | IC50 [4] [µM] | IC50 (MCF7 (breast carcinoma)) [µM] |
| --- | --- | --- | --- | --- | --- | --- | --- | --- | --- |
| C[C@@]12CC[C@@H]3[C@@](CC[C@H]4[C@@]3(C)CCC[C@@]4(C)C(=O)OCCBr)(CC1=O)C2 [Compound 7, 2-Bromoethyl (4α, 8β, 13β) 13-Methyl-16-oxo-17-norkauran-18-oate] | 1.94 | 32.1 | 16.1 | 28.7 | 1.50 | 3.26 | 19.1 | 62.3 | 11.8 |
| CC12CCC3C(CCC4C(C)(C(=O)OCCCBr)CCCC34C)(CC1=O)C2 (stereo not drawn) [Compound 15, 3-Bromopropyl (4α, 8β, 13β) 13-Methyl-16-oxo-17-norkauran-18-oate] | 1.67 | 24.8 | 15.1 | 16.6 | 1.85 | 4.61 | 9 | 41.5 | 12.8 |
| CC12CCC3C(CCC4C(C)(C(=O)OCCC[n+]5cccc(C=Cc6c[nH]c7ccccc67)c5)CCCC34C)(CC1=O)C2.[Br-] (stereo not drawn) [Compound 19, 3-{3[(E)-2-(1H-Indol-3-yl)-ethenyl]-pyridinium-1-yl}-propyl (4α, 8β, 13β) 13-Methyl-16-oxo-17-norkauran-18-oate Bromide] | 1.38 | 11.2 | 5.05 | 1.93 | 1.94 | 15.60 | 0.99 | 15.5 | 2.5 |
| C=C1C[C@@]23CC[C@H]4[C@@](C)(CCC[C@@]4(C)C(=O)OCCCC[n+]4cccc(/C=C/c5c[nH]c6ccccc56)c4)[C@@H]2CC[C@]1(O)C3.[Br-] [Compound 26, 4-{3-[(E)-2-(1H-Indol-3-yl)-ethenyl]-pyridinium-1-yl}butyl (4α)-13-Hydroxykaur-16-en-18-oate Bromide] | 1.69 | 6.94 | 2.43 | 1.82 | 1.42 | 9.14 | 1.28 | 11.7 | 1.98 |
| C=C1C[C@@]23CC[C@H]4[C@@](C)(CCC[C@@]4(C)C(=O)OCCCC[n+]4ccccc4/C=C/c4c[nH]c5ccccc45)[C@@H]2CC[C@]1(O)C3.[Br-] [Compound 28] | 1.46 | 7.51 | 1.78 | 1.68 | 3.33 | 21.75 | 0.5 | 10.9 | 1.18 |
| C=C1C[C@@]23CC[C@H]4[C@@](C)(CCC[C@@]4(C)C(=O)OCC[n+]4ccccc4/C=C/c4c[nH]c5ccccc45)[C@@H]2CC[C@]1(O)C3.[Br-] [Compound 12, 2-{2-[(E)-2-(1H-Indol-3-yl)ethenyl]-pyridinium-1-yl}-ethyl (4α)-13-Hydroxykaur-16-en-18-oate Bromide] | 1.40 | 54.3 | 28.5 | 29.4 | 1.14 | 2.95 | 25.7 | 75.9 | 20.2 |
| C=C1C[C@@]23CC[C@H]4[C@@](C)(CCC[C@@]4(C)C(=O)OCC[n+]4cccc(/C=C/c5c[nH]c6ccccc56)c4)[C@@H]2CC[C@]1(O)C3 [Compound 10, 2-{3-[(E)-2-(1H-Indol-3-yl)ethenyl]-pyridinium-1-yl}-ethyl (4α)-13-Hydroxykaur-16-en-18-oate Bromide] |  |  | 7.65 | 4.2 |  |  | 2.8 | 22.7 | 3.83 |
| 4-Bromobutyl (4α) -13-Hydroxykaur-16-en-18-oate Bromide [Compound 22] | 1.68 |  |  |  | 1.14 | 3.58 |  |  |  |
| C=C1C[C@@]23CC[C@H]4[C@@](C)(CCC[C@@]4(C)C(=O)OCC[n+]4ccc(/C=C/c5c[nH]c6ccccc56)cc4)[C@@H]2CC[C@]1(O)C3.[Br-] [Compound 8, 2-{4-[(E)-2-(1H-Indol-3-yl)ethenyl]-pyridinium-1-yl}-ethyl (4α)-13-Hydroxykaur-16-en-18-oate Bromide] | 1.34 | 8.82 | 1.81 | 1.86 | 0.92 | 5.87 | 2.01 | 11.8 | 1.81 |
| CC12CCC3C(CCC4C(C)(C(=O)OCC[n+]5ccc(C=Cc6c[nH]c7ccccc67)cc5)CCCC34C)(CC1=O)C2.[Br-] (stereo not drawn) [Compound 9, 2-{4-[(E)-2-(1H-Indol-3-yl)-ethenyl]pyridinium-1-yl}-ethyl (4α, 8β, 13β) 13-Methyl-16-oxo-17-norkauran-18-oate Bromide] | 1.42 | 9.09 | 1.56 | 1.54 | 1.66 | 13.96 | 0.93 | 13 | 1.08 |
| CC12CCC3C(CCC4C(C)(C(=O)OCCCCBr)CCCC34C)(CC1=O)C2 (stereo not drawn) [Compound 23, 4-Bromobutyl (4α, 8β, 13β) 13-Methyl-16-oxo-17-norkauran-18-oate] | 0.91 | 34.3 | 24.6 | 29.1 | 2.23 | 2.40 | 13 | 31.3 | 18.4 |
| C=C1C[C@@]23CC[C@H]4[C@@](C)(CCC[C@@]4(C)C(=O)OCCC[n+]4cccc(/C=C/c5c[nH]c6ccccc56)c4)[C@@H]2CC[C@]1(O)C3.[Br-] [Compound 18] | 2.84 | 9.47 | 6.66 | 2.71 | 1.19 | 11.82 | 2.28 | 26.9 | 9.47 |
| C=C1C[C@@]23CC[C@H]4[C@@](C)(CCC[C@@]4(C)C(=O)OCCCBr)[C@@H]2CC[C@]1(O)C3 [Compound 14, 3-Bromopropyl (4α) -13-hydroxykaur-16-en-18-oate] | 1.44 | 29 | 29.1 | 28.4 | 1.03 | 1.51 | 27.7 | 41.7 | 28.1 |
| CC12CCC3C(CCC4C(C)(C(=O)OCC[n+]5ccccc5C=Cc5c[nH]c6ccccc56)CCCC34C)(CC1=O)C2.[Br-] (stereo not drawn) [Compound 13, 2-{2-[(E)-2-(1H-Indol-3-yl)ethenyl]-pyridinium-1-yl}-ethyl (4α, 8β, 13β) 13-Methyl-16-oxo-17-norkauran-18-oate Bromide] | 1.90 | 10.8 | 6.35 | 4.07 | 2.12 | 10.75 | 1.92 | 20.6 | 3.83 |
| C=C1C[C@@]23CC[C@H]4[C@@](C)(CCC[C@@]4(C)C(=O)OCCC[n+]4ccc(/C=C/c5c[nH]c6ccccc56)cc4)[C@@H]2CC[C@]1(O)C3.[Br-] [Compound 16, 3-{4-[(E)-2-(1H-Indol-3-yl)ethenyl]-pyridinium-1-yl}-propyl (4α)-13-Hydroxykaur-16-en-18-oate Bromide] | 2.77 | 3 | 0.98 | 0.45 | 1.41 | 26.27 | 0.32 | 8.33 | 0.72 |
| C=C1C[C@@]23CC[C@H]4[C@@](C)(CCC[C@@]4(C)C(=O)OCCC[n+]4ccccc4/C=C/c4c[nH]c5ccccc45)[C@@H]2CC[C@]1(O)C3.[Br-] [Compound 20, 3-{2-[(E)-2-(1H-Indol-3-yl)-ethenyl]-pyridinium-1-yl}-propyl (4α)-13-Hydroxykaur-16-en-18-oate bromide] | 1.55 | 12.6 | 6.11 | 2.7 | 1.49 | 10.73 | 1.81 | 19.4 | 1.85 |
| CC12CCC3C(CCC4C(C)(C(=O)OCCCC[n+]5ccccc5C=Cc5c[nH]c6ccccc56)CCCC34C)(CC1=O)C2.[Br-] (stereo not drawn) [Compound 29, 4-{2-[(E)-2-(1H-Indol-3-yl)ethenyl]pyridinium-1-yl}-butyl (4α, 8β, 13β) 13-Methyl-16-oxo-17-norkauran-18-oate Bromide] | 1.88 | 9.86 | 3.81 | 3.22 | 3.05 | 17.61 | 1.06 | 18.6 | 2.05 |
